Like-named read-outs stand apart in the source and are kept apart here. Blank lines part the entries; values can stand above or below the compound they belong to. Residues, ends and D or L forms follow the SMILES beside them. No end group written: not given here.
Experiments:
XO from bovine milk [1] = biological target: T1, XO from bovine milk (Bos taurus, UniProt P80457); experiment: XO inhibitory activity by absorptiometry (absorbance at 290 nm, microplate reader); assay type: biochemical; details: for Suppression of the absorbance increase / enzymatic reaction compared with control (relative absorbance): 290 nm every 5 min for 30 min, Figure 2; for Concentration dependence of XO inhibitory activity / Concentration with significant XO inhibition: absorptiometry; for Concentration with significant XO inhibition: vs. control, p < 0.01, one-way ANOVA, Tukey-Kramer
T1 construct: XO from bovine milk and xanthine were purchased from Sigma‐Aldrich Corp. (MO, USA); purchased Sigma‐Aldrich Corp. (MO, USA); host or cells: bovine milk (natural source)
T1 sequence (P80457 whole entry): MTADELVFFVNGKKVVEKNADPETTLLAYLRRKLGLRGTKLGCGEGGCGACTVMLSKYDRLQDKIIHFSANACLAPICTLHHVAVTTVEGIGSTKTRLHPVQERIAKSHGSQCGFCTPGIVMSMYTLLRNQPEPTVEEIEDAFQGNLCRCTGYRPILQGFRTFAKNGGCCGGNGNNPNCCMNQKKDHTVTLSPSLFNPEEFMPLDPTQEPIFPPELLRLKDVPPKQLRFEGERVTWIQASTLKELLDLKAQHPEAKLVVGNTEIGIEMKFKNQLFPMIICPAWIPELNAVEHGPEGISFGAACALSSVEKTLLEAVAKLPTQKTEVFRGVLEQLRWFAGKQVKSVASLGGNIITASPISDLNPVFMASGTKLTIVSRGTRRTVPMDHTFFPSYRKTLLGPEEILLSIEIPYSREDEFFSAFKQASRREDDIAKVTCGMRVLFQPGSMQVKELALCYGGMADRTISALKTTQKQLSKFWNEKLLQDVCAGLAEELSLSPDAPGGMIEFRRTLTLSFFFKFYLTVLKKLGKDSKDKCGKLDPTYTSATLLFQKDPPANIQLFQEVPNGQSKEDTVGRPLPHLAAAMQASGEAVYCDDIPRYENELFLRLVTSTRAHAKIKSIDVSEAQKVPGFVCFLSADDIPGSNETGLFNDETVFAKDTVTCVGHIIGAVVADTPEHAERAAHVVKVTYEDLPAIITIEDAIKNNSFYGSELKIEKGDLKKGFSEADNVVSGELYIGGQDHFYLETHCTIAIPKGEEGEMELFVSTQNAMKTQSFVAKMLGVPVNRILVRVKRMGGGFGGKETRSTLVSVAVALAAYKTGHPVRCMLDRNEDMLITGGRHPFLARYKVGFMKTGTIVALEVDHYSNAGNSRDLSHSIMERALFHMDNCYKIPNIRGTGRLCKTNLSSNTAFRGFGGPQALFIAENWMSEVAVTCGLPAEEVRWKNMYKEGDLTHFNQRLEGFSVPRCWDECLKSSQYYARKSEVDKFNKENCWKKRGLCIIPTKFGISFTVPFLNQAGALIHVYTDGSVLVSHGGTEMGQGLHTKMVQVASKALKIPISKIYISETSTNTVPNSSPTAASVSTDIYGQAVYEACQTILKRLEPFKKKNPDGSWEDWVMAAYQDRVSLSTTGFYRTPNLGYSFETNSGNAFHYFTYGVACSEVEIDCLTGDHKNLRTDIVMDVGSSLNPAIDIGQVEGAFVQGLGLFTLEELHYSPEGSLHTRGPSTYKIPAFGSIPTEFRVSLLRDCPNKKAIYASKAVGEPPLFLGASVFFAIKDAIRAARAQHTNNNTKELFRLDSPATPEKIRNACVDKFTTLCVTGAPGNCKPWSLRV
Experimental: (§1) Tryptophan and leucine were obtained from Kanto Chemical Co. Ltd. (Tokyo, Japan). The evaluation samples such as peptides and amino acids, and allopurinol (FUJIFILM Wako Pure Chemical Corp., Tokyo, Japan) as a positive control for the evaluation method, were suspended in 0.1 M phosphate buffer pH 7.2 (FUJIFILM Wako Pure Chemical Corp., Tokyo, Japan) containing 0.1 M sodium chloride. The samples were obtained for the assay after sonication for 10 min. XO from bovine milk and xanthine were purchased from Sigma‐Aldrich Corp. (MO, USA). […] The xanthine solution was prepared by diluting it with buffer at a ratio of 1:10.
2.2 Enzymatic Reaction and Monitoring of Absorbance Using a Microplate Reader
(§2) Briefly, the samples (e.g., LDQW) or allopurinol were mixed with the XO solution (final concentration: 25 U/L). A mixture added to the buffer instead of the sample was analyzed as a control. […] The sample, XO solution, and xanthine solution were reacted in a 2:1:1 ratio. The assay was performed in triplicate. The XO inhibitory activity was calculated using the following equation: XOinhibitory activity%=1−AbS30min−AbS0min/AbC30min−AbC0min×100
AbS30min : Absorbance of the sample at 30 min.
AbS0min : Absorbance of the sample at 0 min.
AbC30min : Absorbance of the control at 30 min.
AbC0min : Absorbance of the control at 0 min.
(§3) All experiments were performed in triplicate, with data indicated as mean ± standard deviation (SD). […] One‐way analysis of variance (ANOVA) was used for parametric analyses, followed by the Tukey–Kramer test. p values of < 0.05 were considered statistically significant.

XO from bovine milk [2] = biological target: T1, XO from bovine milk; experiment: XO inhibitory activity by LC-MS/MS quantification of uric acid; assay type: biochemical; details: for Concentration dependence of XO inhibition: Figure 5 or Figure 6; for Concentration with significant XO inhibition: vs. control, Figure 5; for Concentration with significant XO inhibition / Significance of XO inhibition at any concentration: one-way ANOVA, Tukey-Kramer; for Concentration with significant XO inhibition / XO inhibitory activity (inhibition ratio) / Significance of XO inhibition at any concentration: n = 3; for XO inhibitory activity (inhibition ratio): 20 mM, UA by LC-MS/MS (PRM m/z 169.03/70.04) after 30 min, XO 25 U/L, xanthine 0.42 mM, 0.1 M phosphate buffer pH 7.2 containing 0.1 M sodium chloride, mean ± SD; for Significance of XO inhibition at any concentration: tryptophan Figure 5, leucine Figure 6
Experimental: as §1, §2
2.3 Determination of XO Inhibitory Activity Using LC–MS/MS
To halt the enzymatic reaction, an equal volume of 1 M HCl, purchased from Kanto Chemical Co. Ltd. (Tokyo, Japan), was promptly added to the mixture after the absorbance was monitored for 30 min (Figure 1A). The mixture was then diluted 50‐fold with water containing 0.2% (v/v) formic acid (FA), which was purchased from Kanto Chemical Co. Ltd. (Tokyo, Japan), to prepare analytical samples for LC–MS/MS. UA in the analytical samples was measured using a Vanquish Ultra‐High‐Performance LC system coupled with a Vanquish variable wavelength detector VF‐D40 and a Q Exactive Focus (Thermo Fisher Scientific Inc., MA, USA). UA in the analytical samples was separated using an XBridge Peptide BEH C18 Column (2.1 mm i.d. × 250 mm, 3.5 μm, Waters Inc., MA, USA).
UA separation was achieved using 0.1% (v/v) FA in water (solvent A) and 0.1% FA in methanol (solvent B, Kanto Chemical Co. Ltd., Tokyo, Japan) with the following gradient over 22 min: 2% B for 5 min, increased from 2% to 10% B over 3 min, from 10% to 80% B over 2 min, held at 80% B for 2 min, decreased from 80% to 2% B over 0.1 min and held at 2% B for 10 min. The column temperature and flow rate were maintained at 40°C and 0.2 mL/min, respectively. During separation, the absorbance was monitored at 290 nm.
MS detection was performed in positive ion mode. […] The peak area detected at a retention time of 4.3 min was analyzed using Thermo Scientific Xcalibur. UA was quantified using the absolute calibration curve method, which was constructed from the peak areas of UA at various concentrations. XO inhibitory activity was calculated as [1 − UAs/UAc] × 100%, where UAs and UAc represent the amount of UA in the samples and control, respectively.
as §3

xanthine oxidase (XO) = details: cited from earlier work; for IC50: literature value, ref He et al. [2019], Mao et al. [2023], Xu, Liu, et al. [2024], read-out: IC50 (XO inhibition)
[3] = system: rat model of hyperuricemia; details: ref Qi et al. [2023], [2024]; cited from earlier work
Text: As study limitations, the mechanism for alleviating hyperuricemia is known to involve not only XO activity inhibition but also other factors, such as UA excretion promotion and UA reabsorption inhibition (Cicero et al. [2021]).

[4] = system: rat model of hyperuricemia; details: orally administered, ref He et al. [2024], Qi et al. [2022a]; cited from earlier work
Text: There have been numerous reports on bioactive peptides with XO inhibitory activity.

[5] = experiment of Figure 6 (DQW fragment)
[6] = 20 mM, absorbance at 290 nm, 0-30 min, XO 25 U/L, xanthine 0.42 mM, 0.1 M phosphate buffer pH 7.2 containing 0.1 M sodium chloride, mean ± SD, n = 3, Figure 3
[7] = 1-20 mM tested, n = 3, Figure 3

Compound: Oc1ncnc2[nH]ncc12 [allopurinol]
Suppression of the absorbance increase / enzymatic reaction compared with control (relative absorbance) (XO from bovine milk [1]; n = 3): suppressed the increase in absorbance in a concentration‐dependent manner | Concentration dependence of XO inhibitory activity (XO from bovine milk [1]; Figure 3): increased with rising concentrations in a concentration‐dependent manner | Concentration with significant XO inhibition (XO from bovine milk [1]; allopurinol positive control, 1-50 μM tested, n = 3, Figure 3): ≥ 0.001 mM | Concentration dependence of XO inhibition (XO from bovine milk [2]; LC-MS/MS): significantly inhibited XO activity in a concentration‐dependent manner | Concentration with significant XO inhibition (XO from bovine milk [2]; allopurinol positive control, LC-MS/MS): ≥ 1 µM | XO inhibition reported earlier (xanthine oxidase (XO); ref Klein et al. [1996]): reported to have XO inhibitory activity

Compound: Ala‐Met
IC50 (xanthine oxidase (XO)): 40.5 mM

Compound: Phe‐His
IC50 (xanthine oxidase (XO)): 25.7 mM

XO inhibitory activity (inhibition ratio) (XO from bovine milk [2]; [5]): 48.4% ± 8.5 | XO inhibitory activity in comparison with another peptide (XO from bovine milk [2]; LC-MS/MS): comparable to that of LDQW
Compound: Asp‐Gln‐Trp [DQW]
Concentration dependence of XO inhibition (XO from bovine milk [2]; LC-MS/MS): significantly inhibited XO activity in a concentration‐dependent manner

Compound: Gly‐Leu
IC50 (xanthine oxidase (XO)): 10.2 mM

inhibition at 20000 µM (XO from bovine milk [1]; [6]): 96.4% | XO inhibitory activity (inhibition ratio) (XO from bovine milk [2]; experiment of Figure 5): 58.0% ± 2.8 | XO inhibitory activity (inhibition ratio) (XO from bovine milk [2]; [5]): 57.9% ± 3.2
Compound: CC(C)C[C@H](N)C(=O)N[C@@H](CC(=O)O)C(=O)N[C@@H](CCC(N)=O)C(=O)N[C@@H](Cc1c[nH]c2ccccc12)C(=O)O [LDQW, Leu‐Asp‐Gln‐Trp] (H-LDQW-OH)

inhibition at 20000 µM (XO from bovine milk [1]; [6]): 95.2% | Concentration with significant XO inhibition (XO from bovine milk [1]; [7]): ≥ 1 mM | XO inhibitory activity (inhibition ratio) (XO from bovine milk [2]; experiment of Figure 5): 4.4% ± 3.7
Compound: N[C@@H](Cc1c[nH]c2ccccc12)C(=O)O [tryptophan]
Suppression of the absorbance increase / enzymatic reaction compared with control (relative absorbance) (XO from bovine milk [1]; n = 3): the enzymatic reaction by XO was suppressed compared with the control | Concentration dependence of XO inhibitory activity (XO from bovine milk [1]; Figure 3): increased with rising concentrations in a concentration‐dependent manner | Significance of XO inhibition at any concentration (XO from bovine milk [2]; LC-MS/MS): did not exhibit significant XO inhibition at any concentration

Compound: Leu‐Leu‐Trp [LLW]
Expression of genes related to UA synthesis in the liver [3]: reduce the expression of genes related to UA synthesis in the liver | Gene expression for UA excretion in the kidneys [3]: enhance gene expression for UA excretion in the kidneys | XO inhibition reported earlier (xanthine oxidase (XO); ref Qi et al. [2023], [2024]): known for their XO inhibitory activities

Compound: Pro‐Glu‐Trp [PEW, peptide derived from milk proteins]
Expression of genes related to UA synthesis in the liver [3]: reduce the expression of genes related to UA synthesis in the liver | Gene expression for UA excretion in the kidneys [3]: enhance gene expression for UA excretion in the kidneys | XO inhibition reported earlier (xanthine oxidase (XO); ref Qi et al. [2022a], [2022b]): inhibit XO | XO inhibition reported earlier (xanthine oxidase (XO); ref Qi et al. [2023], [2024]): known for their XO inhibitory activities

XO inhibitory activity (XO from bovine milk [1]; [6]): 25.2% ± 1.9 | Concentration with significant XO inhibition (XO from bovine milk [1]; [7]): 20 mM | XO inhibitory activity (inhibition ratio) (XO from bovine milk [2]; experiment of Figure 5): 45.0% ± 1.0 | Concentration with significant XO inhibition (XO from bovine milk [2]; LC-MS/MS): ≥ 5000 µM
Compound: Ala‐Leu‐Pro‐Met [ALPM, milk protein-derived peptide used for comparison]
Suppression of the absorbance increase / enzymatic reaction compared with control (relative absorbance) (XO from bovine milk [1]; n = 3): suppressed this increase compared with the control | Concentration dependence of XO inhibition (XO from bovine milk [2]; LC-MS/MS): increase in the inhibition ratio in a concentration‐dependent manner | Renal dysfunction [4]: improve renal dysfunction | Serum uric acid (SUA) levels [4]: reduce SUA levels | XO inhibition reported earlier (xanthine oxidase (XO); ref Qi et al. [2022a], [2022b]): inhibit XO

Compound: Ala‐Leu
IC50 (xanthine oxidase (XO)): 34.5 mM

Compound: CC(C)C[C@H](N)C(=O)O [leucine]
Significance of XO inhibition at any concentration (XO from bovine milk [2]; LC-MS/MS): no significant XO inhibition was observed

Compound: YNITGW
IC50 (xanthine oxidase (XO)): 9.8 mM

Compound: Pro‐Met
IC50 (xanthine oxidase (XO)): 23.8 mM
